The EC50 is the concentration that produces a half-maximal response. The IC50 is the concentration at which inhibition is half-maximal.

The target of assay [1] is KRAS^G12D-FMe.RAF1^RBDCRD complex (Homo sapiens, UniProt P01116, G12D). Put plainly: SHG assay: binding to bilayer-tethered KRAS G12D/RAF1 complex. To be noted: GppNHp-loaded complex on PS bilayer; compound 0.027-40 μM, monitored over 60 min. On the procedure: Compounds suspected to carry intrinsic SHG activity were tested in the presence of an unlabeled KRAS^G12D-FMe.RAF1^RBDCRD complex to monitor binding. PS bilayer was prepared from PS-enriched small unilamellar vesicles (SUVs) purchased from Biodesy, Inc. The concentrated SUVs were diluted in TBS buffer containing 5 mM CaCl2 and incubated on a glass-bottom 384-well Biodesy Delta™ assay plate to allow bilayer formation. Equimolar amounts of GppNHp-loaded KRAS^G12D-FMe and RAF1^RBDCRD were mixed and incubated together on PS bilayer overnight at 4° C. The following day, untethered protein was removed by washing with assay buffer (20 mM Hepes, pH 7.4, […], 1 mM TCEP, 5 μM GppNHp). The SHG signal produced by bilayer-tethered complex was ready using the Biodesy Delta™ platform where each well was pulsed with an 800 nm laser and the resulting second harmonic signal intensity at 400 nm was collected. Compounds were diluted into the same assay buffer and applied to the complex at a final concentration range spanning 0.027 μM-40 μM and the SHG intensity of each well was monitored at 5 minute intervals over a 60 minute time period.

Assay [2] concerns Phospho-ERK (Thr202/Tyr204) in MiaPaCa-2 cells. As to the kind of experiment: pERK inhibition in MiaPaca-2 cell line (HTRF). The format is cell-based. To be noted: Homo sapiens, MIA PaCa-2, 1 hour incubation with compound. The procedure: MiaPaCa-2 cells (ATCC CRL-1420) were cultured in high glucose DMEM (Gibco 11965092) containing 10% fetal bovine serum (Gibco 1993708) and 1× Penicillin/Streptomycin, at 37° C. in a humid atmosphere of 5% CO2 in the air. Cells were plated in tissue-culture treated 96-well plates at a density of 10,000 cells/well and allowed to attach for 16 hours. The medium was then removed, and diluted compounds were added in a final concentration of 0.5% DMSO. After 1 hour of incubation, cells were lysed by the lysis buffer supplied with the Phospho-ERK (Thr202/Tyr204) cellular HTRF kit (Cisbio 64ERKPEH) and transferred to a 384-well low-volume white plate (PerkinElmer 6008280). The cell lysates were treated with the detection reagents supplied with the HTRF kit for 4 hours at ambient temperature in darkness. Two fluorescence intensities at the wavelengths (665 and 620 nm) were measured by the Envision plate reader (Perkin Elmer), and the data were processed and fitted to a 4-parameter logistic model for IC50 calculation (GraphPad Prism 9).

As for `C=C(F)C(=O)NCc1cnc(-c2ccc(C)c(Cl)c2)nc1N1CCC(CN)C1` (centres unmarked) [Compound 76], the EC50 in assay [1] lay in the range of 1 to 10 µM. The IC50 in assay [2] lay in the range of 1 to 10 µM.

For `NCC1CCN(c2nc(-c3ccc(Cl)c(C(F)(F)F)c3)ncc2OC2COC2)C1` (centres unmarked) [Compound 16], the half-maximal inhibitory concentration (IC50) in assay [2] fell in the range of 1 to 10 µM.

In assay [1], `C#Cc1cc(-c2ncc(CNC(=O)C3(C#N)CC3)c(N3CCC(CN(C)C)C3)n2)cc(F)c1C` (centres unmarked) [Compound 147, 1-cyano-N-[[4-[3-[(dimethylamino)methyl]pyrrolidin-1-yl]-2-(3-ethynyl-5-fluoro-4-methyl-phenyl)pyrimidin-5-yl]methyl]cyclopropanecarboxamide] showed an EC50 of 10 to 50 µM.

Consider `Cc1ccc(-c2ncc(CNC(=O)C3(F)CC3)c(O[C@@H]3CNC[C@@H]3O)n2)cc1Cl` (racemic) [Compound 100], for which the IC50 in assay [2] lay in the range of 10 to 50 µM.

As for `CN(C)CC1CCN(c2nc(-c3cc(Cl)cc(C(F)c4ccccc4)c3)ncc2CNC(=O)C2(C#N)CC2)C1` (centres unmarked) [Compound 149], in assay [1], the EC50 lay within 1 to 10 µM.

With `Cc1ccc(-c2ncc(NC(=O)c3ccccc3)c(N3CCC(CN)C3)n2)cc1Cl` (centres unmarked) [Compound 114], the IC50 in assay [2] fell in the range of 1 to 10 µM.

In the case of `Cc1ccc(-c2ncc(CNCC3CC3)c(N3CCC(CN)C3)n2)cc1Cl` (centres unmarked) [Compound 132], in assay [1], the EC50 lay in the range of 1 to 10 µM.

`N#Cc1cc(-c2ncc(C3=CCNC3)c(N3CCC(CN)C3)n2)ccc1Cl` (centres unmarked) [Compound 22]: the IC50 in assay [2] was 1 to 10 µM.

In assay [1], `Cc1ccc(-c2ncc(CNc3ccccc3)c(N3CCC(CN)C3)n2)cc1Cl` (centres unmarked) [Compound 130] registered a concentration giving a half-maximal response (EC50) of 1 to 10 µM.

`CN(C)CC1CCN(c2nc(-c3ccc(Cc4ccccc4)c(Cl)c3)ncc2CNC(=O)C2(C#N)CC2)C1` (centres unmarked) [Compound 150] had a concentration for a half-maximal effect (EC50) in assay [1] of 1 to 10 µM.

`N#CC1(C(=O)NCc2cnc(-c3ccc(Cl)c(OC(F)(F)F)c3)nc2N2CCC(CN)C2)CC1` (centres unmarked) [Compound 141] came in with an EC50 in assay [1] of 1 to 10 µM.

With `NCc1cnc(-c2ccc(Cl)c(C(F)(F)F)c2)nc1N1CCC(CN)C1` (centres unmarked) [Compound 4], the EC50 in assay [1] fell in the range of 1 to 10 µM.

Regarding `CN1CCC(Oc2nc(-c3ccc(Cl)c(C(F)(F)F)c3)ncc2CNC(=O)C2(C#N)CC2)C1` (centres unmarked) [Compound 79], in assay [1], the EC50 lay within 10 to 50 µM.

On to `Cc1ccc(-c2ncc(OCC(=O)N(C)C)c(N3CCC(CN)C3)n2)cc1Cl` (centres unmarked) [Compound 127], for which the IC50 in assay [2] lay within 1 to 10 µM.

In assay [1], `Cc1ccc(-c2ncc(CNC(=O)C(F)(F)c3ccccc3)c(N3CCC(CN)C3)n2)cc1Cl` (centres unmarked) [Compound 134] yielded an EC50 of 1 to 10 µM.

As for `Cc1ccc(-c2ncc(CNC(=O)C(F)c3ccccc3)c(N3CCC(CN)C3)n2)cc1Cl` (centres unmarked) [Compound 133], the EC50 in assay [1] lay in the range of 1 to 10 µM.

As for `CN(C)CC1CCN(c2nc(-c3cc(Cl)cc(-c4ccccc4)c3)ncc2CNC(=O)C2(C#N)CC2)C1` (centres unmarked) [Compound 142], in assay [1], the EC50 lay in the range of 1 to 10 µM.

As to `Cc1c(Cl)cc(-c2ncc(CNC(=O)C3(C#N)CC3)c(N3CCC(CN)C3)n2)cc1Cl` (centres unmarked) [Compound 139], the EC50 in assay [1] was 1 to 10 µM.

Consider `N#CC1(C(=O)NCc2cnc(-c3ccc4c(c3)CC4)nc2N2CCC(CN)C2)CC1` (centres unmarked) [Compound 117], for which the IC50 in assay [2] lay in the range of 1 to 10 µM.

`NCC1CCN(c2nc(-c3ccc(Cl)cc3F)ncc2C2=CCNC2)C1` (centres unmarked) [Compound 11]: the IC50 in assay [2] lay within 1 to 10 µM.

In assay [1], `C#CC1(C(=O)NCc2cnc(-c3ccc(Cl)c(C(F)(F)F)c3)nc2N2CCC(CN)C2)CC1` (centres unmarked) [Compound 145] registered an EC50 of 1 to 10 µM.

As for `CN(C)CC1CCN(c2nc(-c3cc(Cl)cc(Cc4ccccc4)c3)ncc2CNC(=O)C2(C#N)CC2)C1` (centres unmarked) [Compound 148], the EC50 in assay [1] fell in the range of 1 to 10 µM.

`Cc1ccc(-c2ncc(CNC(=O)C3(F)CC3)c(CN3CCN(C)CC3)n2)cc1Cl` [Compound 128, N-[[2-(3-chloro-4-methyl-phenyl)-4-[(4-methylpiperazin-1-yl)methyl]pyrimidin-5-yl]methyl]-1-fluoro-cyclopropanecarboxamide]: in assay [2], the IC50 is 10 to 50 µM.

Regarding `Cc1ccc(-c2ncc(CNC(=O)C3CNC3)c(N3CCC(CN)C3)n2)cc1Cl` (centres unmarked) [Compound 85], the concentration for a half-maximal effect (EC50) in assay [1] was in the range of 1 to 10 µM.

The compound `Cc1c(F)cc(-c2ncc(CNC(=O)C3(C#N)CC3)c(N3CCC(CN)C3)n2)cc1[N+](=O)[O-]` (centres unmarked) [Compound 140] returned a concentration for a half-maximal effect (EC50) in assay [1] of 1 to 10 µM.

Regarding `NCC1CCN(c2nc(-c3ccc(C(F)(F)F)cc3F)ncc2C2=CCNC2)C1` (centres unmarked) [Compound 8], the IC50 in assay [2] lay within 1 to 10 µM.

For the compound `CN(C)CC1CCN(c2nc(-c3cc(Cl)cc(/C=C/c4ccccc4)c3)ncc2CNC(=O)C2(C#N)CC2)C1` (centres unmarked) [Compound 144], the EC50 in assay [1] lay within 1 to 10 µM.

Consider `Cc1ccc(-c2ncc(CNC(=O)C3(C#N)CC3)c(N3CCN(C)CC3)n2)cc1Cl` [Compound 115], for which, in assay [2], the IC50 is 1 to 10 µM.

With `Cc1ccc(-c2ncc(NS(=O)(=O)C3CC3)c(N3CCC(CN)C3)n2)cc1Cl` (centres unmarked) [Compound 111], the IC50 in assay [2] lay within 1 to 10 µM.

In turn, `Cc1ccc(-c2ncc(CNC(=O)C3CN(C)C3)c(N3CCC(CN)C3)n2)cc1Cl` (centres unmarked) [Compound 86] came in with an EC50 in assay [1] of 1 to 10 µM.

Take `Cc1ccc(-c2ncc(OCC(=O)Nc3ccccc3)c(N3CCC(CN)C3)n2)cc1Cl` (centres unmarked) [Compound 131]: the EC50 in assay [1] is 1 to 10 µM.

As to `N#CC1(C(=O)NCc2cnc(-c3ccc(Cl)cc3F)nc2N2CCC(CN)C2)CC1` (centres unmarked) [Compound 24], the IC50 in assay [2] fell in the range of 10 to 50 µM.

`CS(=O)(=O)NCc1cnc(-c2ccc(Cl)c(C(F)(F)F)c2)nc1N1CCC(CN)C1` (centres unmarked) [Compound 6, N-[[4-[3-(aminomethyl)pyrrolidin-1-yl]-2-[4-chloro-3-(trifluoromethyl)phenyl]pyrimidin-5-yl]methyl]methanesulfonamide] returned an EC50 in assay [1] of 1 to 10 µM.

Turning to `NCC1CCN(c2nc(-c3ccc(Cl)c(C(F)(F)F)c3)ncc2OC2CCNC2)C1` (centres unmarked) [Compound 15], the IC50 in assay [2] is 1 to 10 µM.

In the case of `N#CC1(C(=O)NCc2cnc(-c3cc(F)c(C(F)(F)F)c(F)c3)nc2N2CCC(CN)C2)CC1` (centres unmarked) [Compound 137], the EC50 in assay [1] fell in the range of 1 to 10 µM.

In the case of `N#CC1(C(=O)NCc2cnc(-c3ccc4ccccc4c3)nc2N2CCC(CN)C2)CC1` (centres unmarked) [Compound 64], in assay [2], the IC50 lay in the range of 10 to 50 µM.

Consider `CCOC(=O)NCc1cnc(-c2ccc(C(F)(F)F)cc2F)nc1N1CCC(CN)C1` (centres unmarked) [Compound 21, ethyl N-[[4-[3-(aminomethyl)pyrrolidin-1-yl]-2-[2-fluoro-4-(trifluoromethyl)phenyl]pyrimidin-5-yl]methyl]carbamate], for which, in assay [2], the IC50 lay within 10 to 50 µM.

As for `CN1CC(Oc2nc(-c3ccc(Cl)c(C(F)(F)F)c3)ncc2CNC(=O)C2(C#N)CC2)C1` [Compound 78], the EC50 in assay [1] lay within 10 to 50 µM.

`Cc1ccc(-c2ncc(CNC(=O)C3(C#N)CC3)c(N3CCC(CN(C)C)C3)n2)cc1Cl` (centres unmarked) [Compound 129]: the EC50 in assay [1] lay in the range of 1 to 10 µM.

With `NCC1CCN(c2nc(-c3ccc(Cl)c(C(F)(F)F)c3)ncc2OC2CNC2)C1` (centres unmarked) [Compound 13], the 50% inhibitory concentration (IC50) in assay [2] is 1 to 10 µM.

Regarding `NCCOc1cnc(-c2ccc(Cl)c(C(F)(F)F)c2)nc1N1CC[C@@H](CN)C1` [Compound 3, (S)-2-((4-(3-(aminomethyl)pyrrolidin-1-yl)-2-(4-chloro-3-(trifluoromethyl)phenyl)pyrimidin-5-yl)oxy)ethan-1-amine], the IC50 in assay [2] fell in the range of 1 to 10 µM.

As to `CN(C)CC1CCN(c2nc(-c3cc(Cl)cc(C#Cc4ccccc4)c3)ncc2CNC(=O)C2(C#N)CC2)C1` (centres unmarked) [Compound 143], the EC50 in assay [1] fell in the range of 1 to 10 µM.

With `Cc1ccc(-c2ncc(CNC(=O)C3Cc4ccccc4O3)c(N3CCC(CN)C3)n2)cc1Cl` (centres unmarked) [Compound 135], the concentration giving a half-maximal response (EC50) in assay [1] was 1 to 10 µM.

(Values after patent publication US20240327356A1, “PYRIMIDINE BASED RAS MODULATORS AND USES THEREOF” (QUANTA THERAPEUTICS, INC., priority 2021, published 2024).)
